Experimental data from paper PMC11412900 (Molecular Psychiatry, 2024).
Read-outs that look alike come from different tables or passages of the source.

Experiments:
[1] = molecular target: T1, SERT (Homo sapiens, UniProt P31645); test: Radioligand binding, [3H]imipramine displacement
T1 construct: YFP (yellow-fluorescent protein); expressed in transfected cells
Procedure: (§1) Binding assays were performed as described previously. Briefly, membrane preparations expressing h5-HT1AR, h5-HT2AR or hSERT (see Supplementary Material) were incubated with radiolabeled selective ligands 0.4 nM [^3H]8-OH-DPAT, 1 nM [^3H]ketanserin or 3 nM [^3H]imipramine, respectively. The drugs were diluted in the corresponding binding buffer and tested at increasing concentrations in duplicate. Binding reactions were performed in tubes containing the drug dilutions; 25 μl of the corresponding radioligand; and the membranes (10 μg and 5 μg/500 μL for 5-HT1AR and 5-HT2AR, respectively, and 15 μg/100 μL for hSERT), all diluted in binding buffer. […] Incubation was performed for 1 h at 27 °C for 5-HT1A/2AR and 22 °C for hSERT, according to the manufacturer’s protocol (Perkin Elmer, Inc., Waltham, MA, USA) and previous studies - saturation and kinetic experiments, respectively. The binding reactions were stopped by rapid filtration through GF/B glass microfiber filters pre-soaked with 0.5% polyethyleneimine and washing with ice-cold wash buffer. The filters were placed into vials and scintillation cocktail was added. The trapped radioactivity was quantified. Specific binding was defined as the difference between total binding (binding buffer alone) and non-specific binding. Experiments were conducted per duplicate for at least three independent experiments.
(§2) The generation and maintenance of HEK293 cells stably expressing the yellow-fluorescent protein (YFP)-tagged version of the human isoform of SERT (hSERT) (Perkin Elmer, Waltham, MA, USA) was carried out as described previously. For uptake inhibition and batch release assays, cells were seeded onto previously poly-D-lysine (PDL)-coated 96-well plates at a density of 0.036 million cells per well [5]. For superfusion release assays, cells were seeded onto a previously coated with PDL 6 channel µ-slide at a density of 0.08 million cells per channel. Prior to patching, cells were grown in DMEM containing 10% FBS, Zeocin (150 µg/mL) and Blasticidin (6 µg/mL) for positive selection of transporter-expressing clones. The cells were seeded at a low density on PDL-coated 35 mm plates 24-48 hr prior to patching. For membrane preparation, HEK293 cells expressing hSERT transporters were harvested from 80–90% confluent dishes as described elsewhere. Protein concentration was determined using the Bio-RadProtein Reagent (Bio Rad Laboratories, Hercules, CA, USA). Membrane preparations were stored at −80°C until use. Generation and maintenance of CHO-K1 cells expressing the human isoform of 5-HT2AR (h5-HT2AR) was carried out as described in the manufacturer’s protocol (Perkin Elmer, Waltham, MA, USA). Routine DAPI-Staining assays tested negative in mycoplasma contamination.

[2] = molecular target: T1, SERT; test: Whole-cell patch clamp, transporter-mediated currents in HEK293 cells; format: cell-based
Text: Whole-cell patch clamping was used to measure the transporter-mediated currents and performed as previously described. […] Cells were continuously superfused by a DAD-12 superfusion system and an 8-tube perfusion manifold (ALA Scientific Instruments in Farmingdale, NY, USA), which allowed to apply a physiological external solution. The pipette solution mimics the internal ionic composition of a cell. […] Passive holding currents were subtracted, and the traces were filtered using a 50-Hz digital Gaussian low-pass filter for analysis purposes. Five independent experiments were performed.

[3] = molecular target: T1, SERT; test: [3H]5-HT uptake inhibition in HEK293 cells expressing hSERT; format: cell-based
Procedure: See the Supplementary Material for cell culture procedures. The medium was removed from each well and replaced with 200 μL/well of Krebs-HEPES-Buffer (KHB). The cells were pre-incubated for 5 min with different concentrations of drug in KHB at 50 μL/well. […] The incubation solution was aspirated and the cells were washed with ice-cold KHB and lysed with 1% sodium dodecyl sulfate (SDS). The lysate was collected into vials and scintillation liquid was added. The radioactivity was quantified using a beta-scintillation counter (Perkin Elmer, Waltham, MA, USA). Non-specific uptake was determined in the presence of 30 μM paroxetine. Data were expressed as percentage of control uptake (absence of tryptamine).
as §2

[4] = test system: head twitch response in mice; test: Head twitch response (HTR); format: in vivo; conditions: for HTR Emax (95% CI): 10-min period; for Effect of antagonist pretreatment on tryptamine-induced HTR: antagonist s.c. 1 mg/kg 10 min before tryptamine i.p. 10 mg/kg
Procedure: HTR studies were adapted from. Mice (N = 8–10 per group) were injected intraperitoneally (i.p.) with saline or the appropriate tryptamine dose (0.3, 1, 3, 10, or 30 mg/kg) and placed into the observation arena (25 × 25 × 40 cm). A camera mounted above the observation cage recorded the mice for the next 10 min after the injection. Another batch of animals (N = 8–10) received subcutaneous injections of either saline or the respective antagonist (WAY100635 1 mg/kg for 5-HT1AR or ketanserin 1 mg/kg for 5-HT2AR). After a 10-min interval, the animals were i.p. injected with the corresponding tryptamine (10 mg/kg) and placed in the observation arena. Animal behavior was recorded for the next 10 min after the last injection, as mentioned before. Video recordings were examined by two blind observers blinded to the treatments, who assessed the number of head twitches, defined as a rapid rotational jerk of the head which is not contiguous with any grooming behavior [39].
(§3) Data were expressed as means±standard deviation (SD). Competition, release and functional assays, and substrate-induced current curves were plotted and fitted by non-linear regression to obtain the IC50, EC50, and Emax values. For behavioral studies, data were fitted by non-linear regression and pED50 and Emax values (with the corresponding 95% CI) were estimated by means of a software (GraphPad Prism 10) that further extrapolates the data. The Cheng-Prusoff equation was used to calculate Ki (affinity): Ki = […]/(1 + [radioligand-concentration/Kd]). HTR curves were fitted using a Gaussian equation as described. Data from batch release assays were statistically analyzed with a mixed-effects model, employing Šidák’s correction for multiple comparisons. Total release at each concentration and the behavioral experiments with the corresponding antagonists were statistically analyzed using one-way ANOVA, followed by Tukey’s post-hoc test. Molecular volume (van der Waals) was calculated using a grid approximation (spacing 0.75 Å). logP was calculated using Molinspiration Cheminformatics software. For in vivo studies, one-way ANOVA with Dunnet’s post-hoc test was used to compare all conditions to saline in dose-response experiments when data were normally distributed. Otherwise, a non-parametric test (Kruskall-Wallis with Dunn’s post-hoc test) was used. Alpha was set at 0.05. Outliers were excluded following ROUT’s method (Q = 0.1%). All statistical analyses and Pearson correlations were conducted using GraphPad Prism 10 software (GraphPad software, San Diego, CA, USA).

[5] = molecular target: T1, SERT; test: Batch release of preloaded [3H]5-HT from HEK293 cells expressing SERT; format: cell-based; conditions: with or without monensin, pCA as positive control
Procedure: Batch release is a functional radiometric assay to assess transporter-mediated efflux. […] Subsequently, cells were washed three times with KHB and equilibrated for 10 min in KHB or KHB+monensin (10 µM). […] 10 µM pCA and 0.05 µM paroxetine were used as positive and negative controls, respectively. Liquid scintillation cocktail was added both to the wells containing cells (200 µL) and to the transferred supernatant (100 µL). Total radioactivity determined from/in the remaining lysate of the cells plus the transferred supernatant was set as 100%, and the radioactivity determined in each fraction was expressed as a percentage thereof. Assays were performed per duplicate for five independent experiments.

[6] = test system: core body temperature in mice; test: Core body temperature measurement; format: in vivo
Procedure: Rectal temperature of mice (N = 8–10 per group) was measured 60 min after i.p. injection of the corresponding compound (see previous section “Head twitch response”). This time point was chosen according to the maximal effect observed in pilot experiments. A thermocouple probe (YS451, Panlab, Barcelona, Spain) connected to a digital thermometer (TMP812RS, Panlab, Barcelona, Spain) was inserted 2 cm into the rectum and steady temperature readout was obtained after 10 s of insertion.
as §3

[7] = test system: horizontal locomotor activity in mice; test: Horizontal locomotor activity (HLA); format: in vivo; conditions: i.p., 30 min; for HLA (hypolocomotion) Emax (95% CI): total traveled distance
Procedure: The HLA test was carried out according to a previous study. The same animals (N = 8–10 per group) used for the assessment of HTR were recorded for 30 min in an observation arena, under low-light conditions with white noise. Video recordings were processed using a tracking software (Smart 3.0 Panlab, Barcelona, Spain) to measure the total traveled distance.
as §3

[8] = molecular target: T2, h5-HT1AR (Homo sapiens, UniProt P08908); test: Radioligand binding, [3H]8-OH-DPAT displacement; conditions: 0.4 nM [3H]8-OH-DPAT, N ≥ 3; read-out: 5-HT1AR Ki ± SD
T2 construct: purchased Perkin Elmer, Inc. (Waltham, MA, USA)
T2 sequence (P08908 1-422): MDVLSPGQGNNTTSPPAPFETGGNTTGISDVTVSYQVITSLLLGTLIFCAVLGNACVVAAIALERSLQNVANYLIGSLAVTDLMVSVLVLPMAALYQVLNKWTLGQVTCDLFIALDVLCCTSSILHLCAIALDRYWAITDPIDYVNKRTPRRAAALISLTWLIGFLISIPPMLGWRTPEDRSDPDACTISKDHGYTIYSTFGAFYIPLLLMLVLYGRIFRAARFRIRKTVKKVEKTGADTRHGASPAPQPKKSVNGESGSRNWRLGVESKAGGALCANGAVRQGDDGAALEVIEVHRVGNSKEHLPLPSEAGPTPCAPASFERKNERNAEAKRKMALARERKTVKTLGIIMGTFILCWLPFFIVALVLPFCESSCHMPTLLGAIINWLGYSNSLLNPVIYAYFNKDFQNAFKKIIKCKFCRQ
Procedure: as §1

[9] = molecular target: T3, h5-HT2AR (Homo sapiens, UniProt P28223); format: binding; conditions: 1 nM [3H]ketanserin, N ≥ 3; read-out: 5-HT2AR Ki ± SD
T3 construct: purchased Perkin Elmer, Inc. (Waltham, MA, USA)
T3 sequence (P28223 whole entry): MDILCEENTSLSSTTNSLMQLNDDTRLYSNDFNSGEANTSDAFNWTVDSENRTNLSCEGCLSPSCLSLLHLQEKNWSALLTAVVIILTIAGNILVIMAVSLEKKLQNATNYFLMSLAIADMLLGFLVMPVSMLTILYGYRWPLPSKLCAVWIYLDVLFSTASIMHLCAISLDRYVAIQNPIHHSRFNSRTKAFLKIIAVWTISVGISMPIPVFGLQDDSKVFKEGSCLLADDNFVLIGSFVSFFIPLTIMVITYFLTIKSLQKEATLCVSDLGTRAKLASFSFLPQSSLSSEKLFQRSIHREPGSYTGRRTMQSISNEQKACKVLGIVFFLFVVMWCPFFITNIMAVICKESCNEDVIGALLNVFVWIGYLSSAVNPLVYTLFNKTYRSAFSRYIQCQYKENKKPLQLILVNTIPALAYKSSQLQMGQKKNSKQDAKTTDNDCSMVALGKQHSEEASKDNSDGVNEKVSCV
Procedure: as §1

[10] = 3 nM [3H]imipramine, N ≥ 3, read-out: SERT Ki ± SD
[11] = read-out: 5-HT uptake inhibition IC50 ± SD, HEK293 hSERT, N ≥ 3
[12] = mice, i.p., 10 min after injection
[13] = mice, i.p., 60 min after injection

T1 sequence (P31645 whole entry): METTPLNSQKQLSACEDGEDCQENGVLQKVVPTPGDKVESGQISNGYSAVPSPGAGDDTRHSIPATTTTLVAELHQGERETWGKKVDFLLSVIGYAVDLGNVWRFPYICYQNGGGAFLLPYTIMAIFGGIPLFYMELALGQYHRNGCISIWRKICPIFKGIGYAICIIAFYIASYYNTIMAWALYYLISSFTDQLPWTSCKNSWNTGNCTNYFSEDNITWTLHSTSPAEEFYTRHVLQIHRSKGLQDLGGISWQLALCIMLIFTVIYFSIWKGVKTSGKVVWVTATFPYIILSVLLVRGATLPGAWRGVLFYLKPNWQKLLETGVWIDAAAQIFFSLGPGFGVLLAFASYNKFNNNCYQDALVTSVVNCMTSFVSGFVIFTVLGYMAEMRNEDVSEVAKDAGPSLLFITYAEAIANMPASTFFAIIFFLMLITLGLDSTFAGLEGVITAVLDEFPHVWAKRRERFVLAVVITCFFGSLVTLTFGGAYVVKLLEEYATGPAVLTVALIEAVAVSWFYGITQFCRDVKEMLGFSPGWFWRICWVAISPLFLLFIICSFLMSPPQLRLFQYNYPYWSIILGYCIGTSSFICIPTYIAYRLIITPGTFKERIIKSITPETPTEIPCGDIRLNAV

Row | Structure (SMILES) | HTR Emax (95% CI) ([4]; mice, i.p.) | HLA (hypolocomotion) Emax (95% CI) [7] | Ki [1, 10] [µM] | IC50 [3, 11] [µM] | Ki [8] [µM] | HTR ED50 [4, 12] [mg/kg] | Change in body temperature ED50 [6, 13] [mg/kg] | Ki [9] [µM] | HLA (hypolocomotion) ED50 [7] [mg/kg] | Effect of antagonist pretreatment on tryptamine-induced HTR [4] | further results
1 | COc1ccc2[nH]cc(CCN(C)C)c2c1 [5-MeO-DMT, 5-methoxy-N,N-dimethyltryptamine] | 38.1 (31.7–44.5) HTR events | 41.72 (32.18–51.26) % reduction |  |  |  |  |  |  |  |  | Ki [1]: 14.5 µM; EC50 [2]: 2.6 µM; SERT-mediated inward current Emax ([2]; normalized to current elicited by 5-HT 10 µM): 0.41; SERT substrate type ([2]; whole-cell patch clamp): partial SERT substrates; IC50 [3]: 50.1 µM; ED50 ([4]; Mus musculus, ip, 10 min, mice, i.p., 10 min after injection): 4.84 mg/kg; 5-HT releasing activity [5]: capable of evoking 5-HT release; ED50 ([6]; Mus musculus, ip, 1 h, mice, i.p., 60 min after injection, read-out: Change in body temperature ED50): 4.75 mg/kg; ED50 ([7]; Mus musculus, ip, 0.5 h, read-out: HLA (hypolocomotion) ED50): 0.976 mg/kg
2 | C=CCN(C)CCc1c[nH]c2ccc(OC)cc12 [5-MeO-MALT] | 27.6 (23.2–32.0) HTR events | 85.40 (55.18–115.6) % reduction | 4.01 ± 0.417 | 44.1 | 0.00596 ± 0.00047 | 0.796 | 10.2 | 0.0529 ± 0.009 | 7.32 |  | 
3 | COc1ccc2[nH]cc(CCNC(C)C)c2c1 [5-MeO-NIPT] | 7.58 (5.46–9.71) HTR events | 77.64 (69.78–85.50) % reduction | 8.59 ± 1.71 | 32.1 | 0.0157 ± 0.0023 | 4.85 | 7.35 | 0.123 ± 0.038 | 1.96 |  | 
4 | COc1ccccc1N1CCN(CCN(C(=O)C2CCCCC2)c2ccccn2)CC1 [WAY100635, reference compound] |  |  |  |  |  |  |  |  |  | the number of head twitches increased significantly | Effect of antagonist pretreatment on tryptamine-induced decrease in body temperature ([6]; antagonist s.c. 1 mg/kg before tryptamine i.p. 10 mg/kg, 60 min): the decrease in body temperature was lower
5 | O=C(c1ccc(F)cc1)C1CCN(CCn2c(=O)[nH]c3ccccc3c2=O)CC1 [ketanserin, reference compound] |  |  |  |  |  |  |  |  |  | prevented HTR response | 
